Assay results as given in patent US20250179023A1, “HOLOSYMMETRIC BIPHENYL DERIVATIVE, AND PREPARATION METHOD THEREFOR AND USE THEREOF” (Abbisko Therapeutics Co., Ltd., priority 2022, published 2025).

Experiments:
in vitro = conditions: human, Caco-2, pH 7.4
Protocol: (§6) The permeability and the efflux ratio of the compounds of the examples of the present invention and the comparative compounds were evaluated using a Caco-2 cell model in this experiment. The specific process was as follows: • 1) The Caco-2 cell culture medium was modified Eagle's medium (MEM) containing 10% inactivated fetal bovine serum and 1% nonessential amino acids.
(§7) Working solutions were obtained by diluting with Hank's balanced salt solution (HBSS, Invitrogen) containing 25 mM HEPES (pH 7.4). The detection concentration of the test compound was 10 μM. This study was a two-way permeation experiment from the apical side to the basolateral side (A−B) and from the basolateral side to the apical side (B−A), and a 90-minute incubation at 37° C. was required. After the incubation, the samples diluted with buffer were detected by LC-MS/MS. The concentrations of the compounds were quantified using a standard curve. • 4) Apparent permeability coefficient Papp value (cm/s):

Caco-2 cells [1] = system: Caco-2 cells
Protocol: as §6, §7

PD-1/PD-L1 interaction = PD-1/PD-L1 interaction (Homo sapiens (Human), UniProt Q9NZQ7); assay: PD1-PDL1 HTRF binding activity test; conditions: Cisbio PD-1/PD-L1 binding assay kit
Protocol: The effect of compounds of the examples of the present invention on the PD-1/PD-L1 interaction was determined by the PD-1/PD-L1 binding assay kit from Cisbio (#64ICP01PEG or 64ICP01PEH).

[2] = molecular target: PD-1/PD-L1 interaction (Jurkat/NF-κB-luc/PD1 cells cocultured with Raji-PD-L1 cells) (Homo sapiens (Human), UniProt Q9NZQ7); assay: Jurkat reporter gene cellular assay; type: cell-based; conditions: NF-κB-luc reporter activation fold, OKT3 1 μg/mL, 6 hrs; read-out: Cell activity EC50
Sequence of PD-1/PD-L1 interaction (Jurkat/NF-κB-luc/PD1 cells cocultured with Raji-PD-L1 cells) (Q9NZQ7 19-290): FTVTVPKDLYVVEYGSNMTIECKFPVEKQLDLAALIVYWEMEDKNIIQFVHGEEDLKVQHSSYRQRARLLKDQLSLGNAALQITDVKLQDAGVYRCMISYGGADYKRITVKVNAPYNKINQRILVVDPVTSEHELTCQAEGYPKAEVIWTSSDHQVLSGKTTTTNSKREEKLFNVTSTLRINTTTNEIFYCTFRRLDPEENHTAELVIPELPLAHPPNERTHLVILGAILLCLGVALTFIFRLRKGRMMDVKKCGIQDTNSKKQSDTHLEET
Protocol: The effect of compounds of the examples of the present invention on the PD-1/PD-L1 interaction expressed on cell surfaces and the related influence on T cell functions were determined by a Jurkat reporter gene cellular assay. Briefly, the reporter gene plasmid of NF-κB-luc and the plasmid of human PD-1 were transfected into Jurkat cells to establish a stably transfected cell line capable of stably expressing both PD-1 and NF-κB-Luc reporter genes; the expression level of PD-1 on the cell surface was confirmed by flow cytometry; and the expression of the reporter gene was confirmed via the response of the reporter gene stimulated by OKT-3 and Raji cells.
In addition, the plasmid of human PD-L1 was transfected into Raji cells to obtain a cell line capable of stably expressing PD-L1. Jurkat/NF-κB-luc/PD1 cells and Raji-PD-L1 cells were then cocultured and stimulated with OKT-3. On this basis, the compounds were added, and the enhancement of the signal pathway of T cell activation by the inhibitory effect of the compounds on the PD-1/PD-L1 interaction was evaluated by readings of reporter gene responses.

[3] = Pharmacokinetics in mice (exposure and oral availability); type: in vivo; conditions: male, mouse, ICR mice; for bioavailability: PO (10 mpk) vs IV (2 mpk), read-out: Oral availability (F %)
Text: (§1) The purpose of this study is to study the pharmacokinetic behaviors of some compounds of the present invention, and administration routes were: single per oral administration (PO) or intravenous injection (IV) to ICR mice or rats.
(§2) The compounds used in this test were compounds of specific examples of the present invention and the comparative compounds listed.
ICR mice male N=9 original source: Shanghai Sippr-BK Laboratory Animal Co. Ltd.
(§3) The compounds were each dissolved in a corresponding vehicle, mixed well by shaking and subjected to ultrasonic treatment to obtain colorless clear solutions. 9 mice and 3 rats were orally administered with the solution after fasting overnight. The mice were dosed at 10 mg/kg (or 2 mg/kg by IV) and the rats were dosed at 5 mg/kg (or 1 mg/kg by IV).
(§4) With about 90 μL/time point, blood was drawn from the submaxillary vein, and heparin sodium was added for anticoagulation. The blood samples were placed onto the ice and centrifuged (centrifugation conditions: 8000 rpm, 6 min, 2-8° C.) within 1 hr to isolate the plasmas. The time points for blood sampling were at 0 hrs, 0.25 hrs, 0.5 hrs, 1 hr, 2 hrs, 4 hrs, 6 hrs, 8 hrs and 24 hrs after administration. The samples were stored in a refrigerator at −20° C.
(§5) 40 μL of plasma sample was added to 160 μL of cold acetonitrile containing an internal standard, and the mixture was vortexed for 3 min and centrifuged at 11,000 rpm for 5 min. 100 μL of the supernate was added to 100 μL of water, and 5 μL of the mixed solution was loaded for LC-MS/MS analysis. For comparative compounds 1, 3, 5, the prodrug compounds and corresponding prototype compounds 2, 4, 6 were all analyzed, and specific analysis results are shown in Table 4.

[4] = Caco-2 membrane permeability test; conditions: human, Caco-2, pH 7.4
Protocol: as §6, §7

[5] = Pharmacokinetics in rats (exposure and oral availability); type: in vivo; conditions: male, ICR, rat; for bioavailability: PO (5 mpk) vs IV (1 mpk), read-out: Oral availability (F %)
Text: as §1, §2
ICR rats male N=3 original source: Shanghai Sippr-BK Laboratory Animal Co. Ltd.
as §3, §4, §5

Caco-2 cells [6] = assay: Caco-2 membrane permeability test; conditions: Caco-2, summary of Table 2
Protocol: as §6, §7

[7] = 10 mg/kg, PO (10 mpk), dosed compound detected in plasma
[8] = 5 mg/kg, PO (5 mpk), dosed compound detected in plasma

Sequence of PD-1/PD-L1 interaction (Q9NZQ7 19-238): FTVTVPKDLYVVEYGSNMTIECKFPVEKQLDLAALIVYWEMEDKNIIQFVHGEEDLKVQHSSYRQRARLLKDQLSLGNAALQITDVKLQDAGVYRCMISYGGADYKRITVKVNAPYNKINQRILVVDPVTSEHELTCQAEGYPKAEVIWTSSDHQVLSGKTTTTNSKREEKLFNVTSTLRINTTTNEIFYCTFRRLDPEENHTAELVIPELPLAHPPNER

Row | SMILES | IC50 (PD-1/PD-L1 interaction) | EC50 [2] | Cmax [3, 7] | bioavailability ([3]; plasma, 10 mg/kg) | Papp A→B at 90 min, 10 μM [4] | Papp B→A at 90 min, 10 μM [4] | efflux ratio at 90 min, 10 μM [4] | also measured
1 | CC[C@H]1OC(=O)[C@H](C)[C@@H](O[C@H]2C[C@@](C)(OC)[C@@H](O)[C@H](C)O2)[C@H](C)[C@@H](O[C@@H]2O[C@H](C)C[C@H](N(C)C)[C@H]2O)[C@](C)(O)C[C@@H](C)C(=O)[C@H](C)[C@@H](O)[C@]1(C)O [Erythromycin, erythromycin] | – | – | – | – | – | – | – | Papp A→B at 90 min, 10 μM (in vitro): 0.2 ×10⁻⁶ cm/s; Papp B→A at 90 min, 10 μM (in vitro): 21.6 ×10⁻⁶ cm/s; efflux ratio at 90 min (in vitro): 107; Evaluation of permeability (Caco-2 cells [1]): High efflux
2 | Cc1c(NC(=O)c2cc(C3CC3)c(CNC34CCC(C(=O)O)(CC3)CC4)cn2)cccc1-c1cccc(NC(=O)c2cc(C3CC3)c(CNC34CCC(C(=O)O)(CC3)CC4)cn2)c1C [Example 1, 4-(((6-((3′-(5-(((4-carboxybicyclo[2.2.2]octan-1-yl)amino)methyl) -4-cyclopropylpicolinamido)-2,2′-dimethyl-[1,1′-biphenyl]-3-yl)carbamoyl)-4-cyclopropylpyridin-3-yl)methyl)amino)bicyclo[2.2.2]octane-1-carboxylic acid] | 2.56 nM | 135 nM | 1910 ng/mL | 19.5% | 2.46 ×10⁻⁶ cm/s | 16.5 ×10⁻⁶ cm/s | 6.75 | AUC(0-t) [3, 7]: 8790 ng·h/mL; AUC(0-t) ([3]; plasma, 2 mg/kg, IV (2 mpk)): 9000 ng·h/mL; Cmax ([3]; plasma, 2 mg/kg, IV (2 mpk)): 4000 ng/mL; AUC(0-t) [5, 8]: 2220 ng·h/mL; Cmax [5, 8]: 426 ng/mL; AUC(0-t) ([5]; plasma, 1 mg/kg, IV (1 mpk)): 2350 ng·h/mL; Cmax ([5]; plasma, 1 mg/kg, IV (1 mpk)): 3540 ng/mL; bioavailability ([5]; plasma, 5 mg/kg): 18.9%
3 | Cc1c(NC(=O)c2cc(C3CC3)c(CNC34CCC(C(=O)O)(CC3)C4)cn2)cccc1-c1cccc(NC(=O)c2cc(C3CC3)c(CNC34CCC(C(=O)O)(CC3)C4)cn2)c1C [Example 2, 4,4′-((((((2,2′-dimethyl-[1,1′-biphenyl]-3,3′-diyl)bis(azanediyl))bis(carbonyl))bis (4-cyclopropylpyridine-6,3-diyl))bis(methylene))bis(azanediyl))bis(bicyclo[2.2.1]heptane-1-carboxylic acid)] | 3.67 nM | 151 nM | – | – | – | – | – | –
4 | Cc1c(NC(=O)c2cc(C3CC3)c(CN(C)C34CCC(C(=O)O)(CC3)C4)cn2)cccc1-c1cccc(NC(=O)c2cc(C3CC3)c(CN(C)C34CCC(C(=O)O)(CC3)C4)cn2)c1C [Example 3, 4,4′-((((((2,2′-dimethyl-[1,1′-biphenyl]-3,3′-diyl)bis(azanediyl))bis(carbonyl))bis(4-cyclopropylpyridine-6,3-diyl))bis(methylene))bis(methylazanediyl))bis(bicyclo[2.2.1]heptane-1-carboxylic acid)] | 4.62 nM | 1380 nM | – | – | – | – | – | –
5 | Cc1c(NC(=O)c2cc(C3CC3)c(CNCC34CCC(C(=O)O)(CC3)C4)cn2)cccc1-c1cccc(NC(=O)c2cc(C3CC3)c(CNCC34CCC(C(=O)O)(CC3)C4)cn2)c1C [Example 4, 4,4′-(((((((2,2′-dimethyl-[1,1′-biphenyl]-3,3′-diyl)bis(azanediyl))bis(carbonyl))bis(4-cyclopropylpyridine-6,3-diyl))bis(methylene))bis(azanediyl))bis(methylene))bis(bicyclo[2.2.1]heptane-1-carboxylic acid)] | 1.46 nM | 247 nM | 4550 ng/mL | 57.5% | 9.79 ×10⁻⁶ cm/s | 21.7 ×10⁻⁶ cm/s | 2.21 | AUC(0-t) [3, 7]: 17600 ng·h/mL; AUC(0-t) ([3]; plasma, 2 mg/kg, IV (2 mpk)): 6110 ng·h/mL; Cmax ([3]; plasma, 2 mg/kg, IV (2 mpk)): 3520 ng/mL; AUC(0-t) [5, 8]: 4840 ng·h/mL; Cmax [5, 8]: 1980 ng/mL; AUC(0-t) ([5]; plasma, 1 mg/kg, IV (1 mpk)): 2200 ng·h/mL; Cmax ([5]; plasma, 1 mg/kg, IV (1 mpk)): 1860 ng/mL; bioavailability ([5]; plasma, 5 mg/kg): 44%
6 | COCCc1ccc(OCC(O)CNC(C)C)cc1 (centres unmarked) [Metoprolol, metoprolol] | – | – | – | – | – | – | – | Papp A→B at 90 min, 10 μM (in vitro): 24.7 ×10⁻⁶ cm/s; Papp B→A at 90 min, 10 μM (in vitro): 31.1 ×10⁻⁶ cm/s; efflux ratio at 90 min (in vitro): 1.26; Evaluation of permeability (Caco-2 cells [1]): High
7 | COC(=O)[C@@H](CO)NCc1cnc(C(=O)Nc2cccc(-c3cccc(NC(=O)c4cc(C5CC5)c(CN[C@H](CO)C(=O)OC)cn4)c3C)c2C)cc1C1CC1 [compound 1, reference compound] | – | – | – | 0% | < 2.28 ×10⁻⁶ cm/s | < 1.85 ×10⁻⁶ cm/s | – | bioavailability ([5]; plasma, 5 mg/kg): 0%
8 | Cc1c(NC(=O)c2cc(C3CC3)c(CN[C@H](CO)C(=O)O)cn2)cccc1-c1cccc(NC(=O)c2cc(C3CC3)c(CN[C@H](CO)C(=O)O)cn2)c1C [compound 2, reference compound] | – | – | – | 0% | 0.67 ×10⁻⁶ cm/s | 0.36 ×10⁻⁶ cm/s | 0.53 | AUC(0-t) ([3]; plasma, 2 mg/kg, IV (2 mpk)): 2360 ng·h/mL; Cmax ([3]; plasma, 2 mg/kg, IV (2 mpk)): 5640 ng/mL; A−B membrane permeability (in words) (Caco-2 cells [6]): poor membrane permeability; AUC(0-t) ([5]; plasma, 1 mg/kg, IV (1 mpk)): 7640 ng·h/mL; Cmax ([5]; plasma, 1 mg/kg, IV (1 mpk)): 13200 ng/mL
9 | CCOC(=O)CNCc1cnc(C(=O)Nc2cccc(-c3cccc(NC(=O)c4cc(C5CC5)c(CNCC(=O)OCC)cn4)c3C)c2C)cc1C1CC1 [compound 3, reference compound] | – | – | – | 0% | – | – | – | –
10 | Cc1c(NC(=O)c2cc(C3CC3)c(CNCC(=O)O)cn2)cccc1-c1cccc(NC(=O)c2cc(C3CC3)c(CNCC(=O)O)cn2)c1C [compound 4] | – | – | – | – | < 0.24 ×10⁻⁶ cm/s | 0.98 ×10⁻⁶ cm/s | – | A−B membrane permeability (in words) (Caco-2 cells [6]): poor membrane permeability
11 | COC(=O)[C@H]1CCN(Cc2cnc(C(=O)Nc3cccc(-c4cccc(NC(=O)c5cc(C6CC6)c(CN6CC[C@H](C(=O)OC)C6)cn5)c4C)c3C)cc2C2CC2)C1 [compound 5] | – | – | 30.4 ng/mL | – | < 1.79 ×10⁻⁶ cm/s | < 0.65 ×10⁻⁶ cm/s | – | –
12 | Cc1c(NC(=O)c2cc(C3CC3)c(CN3CC[C@H](C(=O)O)C3)cn2)cccc1-c1cccc(NC(=O)c2cc(C3CC3)c(CN3CC[C@H](C(=O)O)C3)cn2)c1C [compound 6] | – | – | 46.2 ng/mL | – | 0.34 ×10⁻⁶ cm/s | 5.51 ×10⁻⁶ cm/s | 16.3 | AUC(0-t) [3, 7]: 147 ng·h/mL; A−B membrane permeability (in words) (Caco-2 cells [6]): poor membrane permeability
